Laboratory results published in ChEMBL document CHEMBL1212811, “Chemical phylogenetics of histone deacetylases” (Nat Chem Biol, 2010).

Legend:
Histone deacetylase 5 = Histone deacetylase 5 (Homo sapiens, UniProt Q9UQL6)
Histone deacetylase 2 = Histone deacetylase 2 (Homo sapiens, UniProt Q92769)
Histone deacetylase 3 = Histone deacetylase 3 (Homo sapiens, UniProt O15379)
Histone deacetylase 9 = Histone deacetylase 9 (Homo sapiens, UniProt Q9UKV0)
Histone deacetylase 8 = molecular target: T1, Histone deacetylase 8 (Homo sapiens, UniProt Q9BY41)
T1 sequence (Q9BY41 whole entry): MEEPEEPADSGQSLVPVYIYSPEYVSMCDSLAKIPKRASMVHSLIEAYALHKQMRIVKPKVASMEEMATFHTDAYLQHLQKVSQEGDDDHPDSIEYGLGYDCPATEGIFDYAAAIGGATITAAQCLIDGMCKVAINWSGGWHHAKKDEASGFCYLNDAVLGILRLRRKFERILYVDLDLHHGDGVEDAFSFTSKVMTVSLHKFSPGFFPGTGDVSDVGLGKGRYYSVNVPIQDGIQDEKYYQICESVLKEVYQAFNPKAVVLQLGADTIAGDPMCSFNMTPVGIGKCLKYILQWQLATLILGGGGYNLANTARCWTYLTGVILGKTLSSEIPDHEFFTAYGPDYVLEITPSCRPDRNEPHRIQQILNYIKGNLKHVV

Histone deacetylase 4 = Histone deacetylase 4 (Homo sapiens, UniProt P56524)
Histone deacetylase 1 = Histone deacetylase 1 (Homo sapiens, UniProt Q13547)
Histone deacetylase 7 = molecular target: T2, Histone deacetylase 7 (Homo sapiens, UniProt Q8WUI4)
T2 sequence (Q8WUI4 whole entry): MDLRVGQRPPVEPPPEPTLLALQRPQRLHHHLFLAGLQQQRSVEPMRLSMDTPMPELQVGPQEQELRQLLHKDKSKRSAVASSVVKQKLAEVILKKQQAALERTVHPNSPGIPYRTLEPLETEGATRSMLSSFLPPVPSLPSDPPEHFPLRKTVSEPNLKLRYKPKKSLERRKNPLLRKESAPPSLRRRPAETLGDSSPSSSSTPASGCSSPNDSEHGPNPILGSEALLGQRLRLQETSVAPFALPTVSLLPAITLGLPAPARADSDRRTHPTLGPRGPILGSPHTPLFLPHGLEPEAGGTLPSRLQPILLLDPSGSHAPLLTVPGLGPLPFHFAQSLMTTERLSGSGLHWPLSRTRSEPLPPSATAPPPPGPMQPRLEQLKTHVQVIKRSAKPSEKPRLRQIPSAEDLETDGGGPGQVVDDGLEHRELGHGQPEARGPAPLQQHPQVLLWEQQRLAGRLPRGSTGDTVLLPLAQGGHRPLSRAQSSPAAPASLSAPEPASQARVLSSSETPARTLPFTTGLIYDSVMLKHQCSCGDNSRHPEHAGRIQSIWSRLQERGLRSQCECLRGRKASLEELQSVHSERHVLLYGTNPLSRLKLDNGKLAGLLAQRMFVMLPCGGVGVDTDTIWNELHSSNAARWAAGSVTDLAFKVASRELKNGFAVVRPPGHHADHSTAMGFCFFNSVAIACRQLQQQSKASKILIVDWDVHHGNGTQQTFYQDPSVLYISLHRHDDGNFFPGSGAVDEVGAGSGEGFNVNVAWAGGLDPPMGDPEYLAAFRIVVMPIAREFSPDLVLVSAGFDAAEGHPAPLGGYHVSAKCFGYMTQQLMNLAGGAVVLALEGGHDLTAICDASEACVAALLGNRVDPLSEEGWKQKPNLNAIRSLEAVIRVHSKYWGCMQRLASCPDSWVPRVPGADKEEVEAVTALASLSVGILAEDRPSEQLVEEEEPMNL

[1] = molecular target: T3, Protein deacetylase HDAC6 (Homo sapiens, UniProt Q9UBN7)
T3 sequence (Q9UBN7 whole entry): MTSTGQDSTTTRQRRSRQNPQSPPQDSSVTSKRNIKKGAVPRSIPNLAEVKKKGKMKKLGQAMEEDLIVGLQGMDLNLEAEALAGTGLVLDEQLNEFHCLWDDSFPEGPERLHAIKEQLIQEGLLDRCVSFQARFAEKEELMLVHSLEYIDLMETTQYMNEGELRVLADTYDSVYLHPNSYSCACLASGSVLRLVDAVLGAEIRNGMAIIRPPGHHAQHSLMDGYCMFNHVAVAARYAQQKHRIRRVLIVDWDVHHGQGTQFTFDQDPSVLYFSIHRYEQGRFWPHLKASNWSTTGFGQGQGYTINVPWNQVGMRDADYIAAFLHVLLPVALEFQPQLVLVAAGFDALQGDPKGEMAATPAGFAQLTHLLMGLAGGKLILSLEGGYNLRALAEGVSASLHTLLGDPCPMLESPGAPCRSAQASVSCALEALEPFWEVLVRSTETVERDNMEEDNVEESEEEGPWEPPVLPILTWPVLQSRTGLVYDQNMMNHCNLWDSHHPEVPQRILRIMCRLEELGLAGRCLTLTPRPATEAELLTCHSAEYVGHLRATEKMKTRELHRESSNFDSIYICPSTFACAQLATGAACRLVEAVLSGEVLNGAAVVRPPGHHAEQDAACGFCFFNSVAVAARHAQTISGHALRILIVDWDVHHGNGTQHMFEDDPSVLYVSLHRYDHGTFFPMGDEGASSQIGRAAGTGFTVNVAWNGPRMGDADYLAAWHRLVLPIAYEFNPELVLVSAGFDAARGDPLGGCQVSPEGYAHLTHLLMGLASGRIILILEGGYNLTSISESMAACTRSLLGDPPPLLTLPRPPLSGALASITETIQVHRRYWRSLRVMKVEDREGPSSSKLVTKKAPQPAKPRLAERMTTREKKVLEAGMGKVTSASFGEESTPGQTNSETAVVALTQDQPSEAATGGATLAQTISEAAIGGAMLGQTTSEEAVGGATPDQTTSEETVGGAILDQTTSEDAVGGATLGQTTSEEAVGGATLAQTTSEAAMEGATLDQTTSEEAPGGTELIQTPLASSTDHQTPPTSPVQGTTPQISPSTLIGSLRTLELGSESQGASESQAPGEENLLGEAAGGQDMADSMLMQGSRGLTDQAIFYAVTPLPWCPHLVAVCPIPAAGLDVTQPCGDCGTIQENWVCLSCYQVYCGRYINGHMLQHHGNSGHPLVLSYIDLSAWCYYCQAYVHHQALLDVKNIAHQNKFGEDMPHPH

Sequence of Histone deacetylase 2 (Q92769 whole entry): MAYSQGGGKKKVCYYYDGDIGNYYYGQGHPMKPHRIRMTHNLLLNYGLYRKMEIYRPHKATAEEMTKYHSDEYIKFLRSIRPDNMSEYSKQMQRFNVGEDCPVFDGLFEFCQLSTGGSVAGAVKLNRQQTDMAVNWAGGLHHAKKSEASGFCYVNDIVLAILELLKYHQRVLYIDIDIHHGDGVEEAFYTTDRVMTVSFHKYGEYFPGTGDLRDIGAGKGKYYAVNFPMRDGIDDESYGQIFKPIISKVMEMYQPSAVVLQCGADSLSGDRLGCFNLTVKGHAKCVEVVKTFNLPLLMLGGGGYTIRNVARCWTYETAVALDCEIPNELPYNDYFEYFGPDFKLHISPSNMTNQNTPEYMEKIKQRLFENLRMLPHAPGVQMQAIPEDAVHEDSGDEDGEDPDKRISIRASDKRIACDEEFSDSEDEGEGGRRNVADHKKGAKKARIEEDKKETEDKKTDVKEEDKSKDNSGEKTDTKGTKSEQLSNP
Sequence of Histone deacetylase 5 (Q9UQL6 whole entry): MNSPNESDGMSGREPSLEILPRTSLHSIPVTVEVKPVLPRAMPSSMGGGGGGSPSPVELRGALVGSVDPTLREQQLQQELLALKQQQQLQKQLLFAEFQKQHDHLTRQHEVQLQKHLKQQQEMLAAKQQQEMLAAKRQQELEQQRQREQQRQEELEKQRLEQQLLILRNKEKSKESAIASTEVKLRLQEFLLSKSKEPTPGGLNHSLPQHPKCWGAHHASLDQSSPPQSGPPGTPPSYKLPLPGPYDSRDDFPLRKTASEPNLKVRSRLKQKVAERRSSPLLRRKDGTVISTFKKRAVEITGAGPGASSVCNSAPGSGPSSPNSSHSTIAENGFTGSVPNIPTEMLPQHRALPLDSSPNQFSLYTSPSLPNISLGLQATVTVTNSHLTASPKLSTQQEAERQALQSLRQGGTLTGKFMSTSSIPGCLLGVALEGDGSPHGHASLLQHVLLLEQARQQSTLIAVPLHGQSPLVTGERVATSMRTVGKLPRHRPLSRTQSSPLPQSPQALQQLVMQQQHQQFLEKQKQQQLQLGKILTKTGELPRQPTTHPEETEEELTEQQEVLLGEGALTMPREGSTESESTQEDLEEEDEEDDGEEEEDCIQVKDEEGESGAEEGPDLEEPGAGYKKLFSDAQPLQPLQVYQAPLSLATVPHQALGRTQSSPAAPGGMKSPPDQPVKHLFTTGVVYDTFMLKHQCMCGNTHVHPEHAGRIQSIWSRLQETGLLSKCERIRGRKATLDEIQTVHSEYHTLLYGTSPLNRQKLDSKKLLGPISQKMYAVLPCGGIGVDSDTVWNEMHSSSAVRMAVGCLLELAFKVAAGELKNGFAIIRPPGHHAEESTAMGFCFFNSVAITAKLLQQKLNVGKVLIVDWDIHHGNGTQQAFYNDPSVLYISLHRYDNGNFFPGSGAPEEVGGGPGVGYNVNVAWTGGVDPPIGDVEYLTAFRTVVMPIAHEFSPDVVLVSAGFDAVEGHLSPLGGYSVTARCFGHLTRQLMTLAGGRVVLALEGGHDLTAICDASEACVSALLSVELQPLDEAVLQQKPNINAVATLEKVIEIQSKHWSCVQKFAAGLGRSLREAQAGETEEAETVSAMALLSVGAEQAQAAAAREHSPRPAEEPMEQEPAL
Sequence of Histone deacetylase 4 (P56524 whole entry): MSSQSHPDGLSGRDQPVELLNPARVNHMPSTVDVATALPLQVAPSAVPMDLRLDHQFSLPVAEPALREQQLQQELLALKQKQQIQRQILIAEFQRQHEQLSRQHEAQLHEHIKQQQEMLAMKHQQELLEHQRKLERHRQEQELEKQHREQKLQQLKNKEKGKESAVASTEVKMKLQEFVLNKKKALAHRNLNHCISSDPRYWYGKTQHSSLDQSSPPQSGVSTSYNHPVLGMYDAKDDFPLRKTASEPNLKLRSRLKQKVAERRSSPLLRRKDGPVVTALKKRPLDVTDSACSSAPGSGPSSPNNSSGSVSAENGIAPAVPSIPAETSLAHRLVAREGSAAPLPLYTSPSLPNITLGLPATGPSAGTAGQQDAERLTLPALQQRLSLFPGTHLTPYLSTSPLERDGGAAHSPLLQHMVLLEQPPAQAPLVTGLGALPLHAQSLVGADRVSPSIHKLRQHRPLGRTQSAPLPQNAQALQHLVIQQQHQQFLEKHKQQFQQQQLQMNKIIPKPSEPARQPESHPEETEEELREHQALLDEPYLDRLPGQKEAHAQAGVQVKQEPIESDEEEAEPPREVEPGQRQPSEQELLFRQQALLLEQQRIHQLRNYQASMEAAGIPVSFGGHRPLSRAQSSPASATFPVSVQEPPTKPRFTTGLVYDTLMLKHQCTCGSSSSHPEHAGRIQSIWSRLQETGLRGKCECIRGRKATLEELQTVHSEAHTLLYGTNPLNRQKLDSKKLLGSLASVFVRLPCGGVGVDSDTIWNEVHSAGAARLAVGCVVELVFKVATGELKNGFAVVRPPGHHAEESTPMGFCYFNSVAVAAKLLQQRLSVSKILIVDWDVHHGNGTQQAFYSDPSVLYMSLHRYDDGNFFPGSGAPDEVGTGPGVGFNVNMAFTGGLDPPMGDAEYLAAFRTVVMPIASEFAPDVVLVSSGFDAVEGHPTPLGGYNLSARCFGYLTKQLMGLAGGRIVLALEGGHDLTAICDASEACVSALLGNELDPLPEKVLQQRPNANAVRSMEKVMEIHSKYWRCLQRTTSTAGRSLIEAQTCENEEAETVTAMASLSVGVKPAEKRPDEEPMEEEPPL
Sequence of Histone deacetylase 9 (Q9UKV0 whole entry): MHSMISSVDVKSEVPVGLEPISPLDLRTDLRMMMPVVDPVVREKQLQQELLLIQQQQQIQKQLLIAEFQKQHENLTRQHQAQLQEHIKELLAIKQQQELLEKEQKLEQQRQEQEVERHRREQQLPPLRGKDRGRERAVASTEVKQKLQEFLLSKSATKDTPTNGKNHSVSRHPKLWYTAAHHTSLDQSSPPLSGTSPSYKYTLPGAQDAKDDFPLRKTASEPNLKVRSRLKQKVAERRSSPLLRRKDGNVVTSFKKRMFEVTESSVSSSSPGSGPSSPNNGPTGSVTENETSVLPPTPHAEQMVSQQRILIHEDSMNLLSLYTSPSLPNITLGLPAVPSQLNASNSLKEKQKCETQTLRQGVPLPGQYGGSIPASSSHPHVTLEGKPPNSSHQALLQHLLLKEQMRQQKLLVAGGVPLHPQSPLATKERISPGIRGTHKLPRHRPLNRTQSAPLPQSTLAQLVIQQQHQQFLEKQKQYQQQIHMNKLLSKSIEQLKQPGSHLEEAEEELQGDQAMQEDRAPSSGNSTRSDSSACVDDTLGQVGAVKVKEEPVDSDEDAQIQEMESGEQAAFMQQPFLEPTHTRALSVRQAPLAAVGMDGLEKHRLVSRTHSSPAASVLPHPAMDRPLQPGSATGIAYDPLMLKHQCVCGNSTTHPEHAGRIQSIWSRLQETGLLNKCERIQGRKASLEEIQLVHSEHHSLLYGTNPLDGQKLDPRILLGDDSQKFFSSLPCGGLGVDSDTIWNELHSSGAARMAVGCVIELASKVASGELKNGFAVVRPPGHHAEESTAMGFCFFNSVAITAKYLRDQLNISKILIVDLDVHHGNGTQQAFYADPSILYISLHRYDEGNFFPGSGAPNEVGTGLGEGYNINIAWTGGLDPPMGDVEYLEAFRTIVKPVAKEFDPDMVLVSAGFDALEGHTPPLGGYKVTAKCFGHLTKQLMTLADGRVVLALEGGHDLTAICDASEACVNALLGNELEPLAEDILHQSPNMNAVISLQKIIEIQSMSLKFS
Sequence of Histone deacetylase 1 (Q13547 whole entry): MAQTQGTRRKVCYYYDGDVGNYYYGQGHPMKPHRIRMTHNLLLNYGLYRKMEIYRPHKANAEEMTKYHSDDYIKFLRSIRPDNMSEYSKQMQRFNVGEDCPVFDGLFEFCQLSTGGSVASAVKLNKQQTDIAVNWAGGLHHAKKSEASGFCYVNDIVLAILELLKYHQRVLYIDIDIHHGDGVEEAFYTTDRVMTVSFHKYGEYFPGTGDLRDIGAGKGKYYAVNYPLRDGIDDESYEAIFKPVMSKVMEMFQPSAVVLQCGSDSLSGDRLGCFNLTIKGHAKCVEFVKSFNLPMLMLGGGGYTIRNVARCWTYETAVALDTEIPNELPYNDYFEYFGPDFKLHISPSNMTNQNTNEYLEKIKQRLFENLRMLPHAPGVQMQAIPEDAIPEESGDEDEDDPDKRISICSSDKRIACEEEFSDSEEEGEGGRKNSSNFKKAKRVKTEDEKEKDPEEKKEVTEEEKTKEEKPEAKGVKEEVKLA
Sequence of Histone deacetylase 3 (O15379 whole entry): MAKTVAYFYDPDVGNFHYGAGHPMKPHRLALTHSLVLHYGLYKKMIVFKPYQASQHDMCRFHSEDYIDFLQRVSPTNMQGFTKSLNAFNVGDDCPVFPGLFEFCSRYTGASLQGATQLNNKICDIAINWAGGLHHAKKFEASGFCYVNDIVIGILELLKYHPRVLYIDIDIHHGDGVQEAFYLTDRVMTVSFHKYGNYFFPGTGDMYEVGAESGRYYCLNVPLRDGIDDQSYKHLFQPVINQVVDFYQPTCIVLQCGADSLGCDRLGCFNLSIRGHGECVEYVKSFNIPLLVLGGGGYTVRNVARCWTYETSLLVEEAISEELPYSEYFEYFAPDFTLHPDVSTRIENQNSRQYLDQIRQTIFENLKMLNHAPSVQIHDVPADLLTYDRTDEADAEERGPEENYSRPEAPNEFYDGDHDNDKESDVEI

| Compound | Ki (Histone deacetylase 5) [nM] | Ki (Histone deacetylase 2) [nM] | Ki (Histone deacetylase 3) [nM] | Ki (Histone deacetylase 9) [nM] | Ki (Histone deacetylase 8) [nM] | Ki (Histone deacetylase 4) [nM] | Ki (Histone deacetylase 1) [nM] | Ki (Histone deacetylase 7) [nM] | Ki [1] [nM] |
| --- | --- | --- | --- | --- | --- | --- | --- | --- | --- |
| O=C(/C=C/c1ccc(C(=O)N/N=C/c2ccc(O)c(O)c2O)cc1)NO | 180 | 70 | 120 | 1400 | 50 | 950 | 120 | 1100 | 32 |
| Cn1c(/C=C/C(=O)NO)ccc1C(=O)Cc1ccccc1 | 11500 | 125 | 250 | 10000 | 600 | 17500 | 55 | 7000 | 30 |
| O=C(/C=C/c1cccc(S(=O)(=O)Nc2ccccc2)c1)NO [BELINOSTAT] | – | – | – | – | – | 380 | – | – | 1.6 |
| C=C[C@@H](O)[C@@H]1O[C@H]1/C=C/[C@@H]1O[C@H]1[C@@H](C)O [DEPUDECIN] | – | 12500 | 14500 | – | – | – | 5500 | – | – |
| CCN(CC)Cc1ccc2cc(COC(=O)Nc3ccc(C(=O)NO)cc3)ccc2c1 [GIVINOSTAT] | 600 | – | – | 390 | – | 1050 | – | – | – |
| O=C(O)CCCCCCC(=O)Nc1ccc([C@H]2O[C@@H](CSc3nc(-c4ccccc4)c(-c4ccccc4)o3)C[C@@H](c3ccc(CO)cc3)O2)cc1 [NILTUBACIN] | – | – | – | – | 750 | – | – | – | 2200 |
| O=C(CCCc1ccccc1)NO [PHENYLBUTYRYLHYDROXAMIC ACID] | 16000 | 430 | – | – | 1850 | – | – | – | 150 |
| O=C(CCCCCCC(=O)Nc1cccnc1)NO [PYROXAMIDE] | 4750 | 36000 | 8 | – | 1000 | – | – | – | 4.8 |
| C/C=C1\NC(=O)[C@H]2CSSCC/C=C/[C@H](CC(=O)N[C@H](C(C)C)C(=O)N2)OC(=O)[C@H](C(C)C)NC1=O [ROMIDEPSIN] | – | – | – | – | – | – | 0.0015 | – | – |
| O=C(CCCCCCC(=O)NO)NO [SUBEROHYDROXAMIC ACID] | 9500 | – | 125 | – | – | – | – | – | 14.5 |
